Reference: ChEMBL document CHEMBL4613323, “Factor H-Inspired Design of Peptide Biomarkers of the Complement C3d Protein” (ACS Med Chem Lett, 2020)

Target: Complement C3 (Homo sapiens, UniProt P01024)
Test: Binding affinity to recombinant human C3d assessed as dissociation constant incubated for 5 mins by microscale thermophoresis assay

Complement C3, sequence (P01024 23-667 limits assumed): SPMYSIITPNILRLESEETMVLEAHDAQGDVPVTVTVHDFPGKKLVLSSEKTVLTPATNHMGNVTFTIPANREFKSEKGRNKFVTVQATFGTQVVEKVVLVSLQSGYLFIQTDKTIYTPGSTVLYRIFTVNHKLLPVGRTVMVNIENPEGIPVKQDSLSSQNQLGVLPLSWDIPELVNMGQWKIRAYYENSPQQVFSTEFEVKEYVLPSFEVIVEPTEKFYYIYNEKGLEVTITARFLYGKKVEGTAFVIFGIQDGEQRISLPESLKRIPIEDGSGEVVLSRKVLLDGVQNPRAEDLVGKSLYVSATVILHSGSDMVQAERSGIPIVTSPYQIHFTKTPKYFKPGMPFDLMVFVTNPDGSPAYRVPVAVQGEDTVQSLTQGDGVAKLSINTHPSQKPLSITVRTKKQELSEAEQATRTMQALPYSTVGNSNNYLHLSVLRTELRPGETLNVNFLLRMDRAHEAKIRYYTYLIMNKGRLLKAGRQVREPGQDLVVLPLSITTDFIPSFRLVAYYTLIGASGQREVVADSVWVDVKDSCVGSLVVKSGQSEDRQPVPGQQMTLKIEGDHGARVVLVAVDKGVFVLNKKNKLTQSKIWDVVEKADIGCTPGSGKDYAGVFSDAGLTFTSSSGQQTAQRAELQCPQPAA
Complement C3, sequence (P01024 672-1663 limits assumed): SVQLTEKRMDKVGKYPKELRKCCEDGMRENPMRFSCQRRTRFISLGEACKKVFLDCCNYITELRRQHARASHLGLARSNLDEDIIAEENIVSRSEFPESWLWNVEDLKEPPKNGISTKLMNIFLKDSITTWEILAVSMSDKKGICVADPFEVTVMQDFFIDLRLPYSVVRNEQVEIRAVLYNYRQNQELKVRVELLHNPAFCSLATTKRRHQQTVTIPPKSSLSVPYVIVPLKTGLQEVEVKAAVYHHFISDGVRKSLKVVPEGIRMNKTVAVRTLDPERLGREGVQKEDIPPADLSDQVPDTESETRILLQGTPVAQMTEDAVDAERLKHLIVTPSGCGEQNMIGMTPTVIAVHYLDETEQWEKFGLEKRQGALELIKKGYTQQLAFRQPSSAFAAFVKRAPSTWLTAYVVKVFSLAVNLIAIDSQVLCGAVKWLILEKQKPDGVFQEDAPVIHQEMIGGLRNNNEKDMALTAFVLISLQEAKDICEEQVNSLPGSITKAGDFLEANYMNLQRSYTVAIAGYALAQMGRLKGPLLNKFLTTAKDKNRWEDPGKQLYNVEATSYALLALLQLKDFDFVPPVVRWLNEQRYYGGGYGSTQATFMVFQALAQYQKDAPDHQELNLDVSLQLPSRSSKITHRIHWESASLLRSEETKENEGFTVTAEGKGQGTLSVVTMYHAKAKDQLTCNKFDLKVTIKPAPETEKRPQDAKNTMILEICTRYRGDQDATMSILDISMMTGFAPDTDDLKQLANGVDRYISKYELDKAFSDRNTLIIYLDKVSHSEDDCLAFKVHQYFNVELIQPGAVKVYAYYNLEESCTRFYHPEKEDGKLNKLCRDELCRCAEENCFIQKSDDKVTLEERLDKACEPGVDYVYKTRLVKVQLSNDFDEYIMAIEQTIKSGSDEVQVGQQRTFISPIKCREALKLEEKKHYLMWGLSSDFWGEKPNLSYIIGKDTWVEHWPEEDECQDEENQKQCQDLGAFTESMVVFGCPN

Kd: 61.6 µM
SMILES: CC(=O)NCC(=O)N[C@H]1CSSC[C@@H](C(=O)NCC(N)=O)NC(=O)[C@H](CCCNC(=N)N)NC(=O)[C@H](Cc2ccc(O)cc2)NC(=O)CNC(=O)[C@H](CCCNC(=N)N)NC(=O)[C@H](CCCCN)NC1=O (stereo in doubt; form 2)
